The target of this assay is recombinant GST-tagged MDM2 / p53-peptide interaction (Homo sapiens, UniProt Q00987). The assay can be described thus: HTRF assay of inhibition of the p53-MDM2 interaction. Format: binding. The conditions noted are these: 0.02% BSA. How it is done:
The ability of the compounds to inhibit the interaction between p53 and MDM2 proteins was measured by an HTRF (homogeneous time-resolved fluorescence) assay in which recombinant GST-tagged MDM2 binds to a peptide that resembles the MDM2-interacting region of p53 (Lane et al.). Binding of GST-MDM2 protein and p53-peptide (biotinylated on its N-terminal end) is registered by the FRET (fluorescence resonance energy transfer) between Europium (Eu)-labeled anti-GST antibody and streptavidin-conjugated Allophycocyanin (APC).
[…] Add 10 uL diluted compounds (1:5 dilution in reaction buffer) to each well, mix by shaking. Add 20 uL biotinylated p53 peptide (180 nM working solution) in reaction buffer to each well and mix on shaker. Incubate at 37° C. for h. Add 20 uL streptavidin-APC and Eu-anti-GST antibody mixture (6 nM Eu-anti-GST and 60 nM streptavidin-APC working solution) in TBS buffer with 0.2% BSA, shake at room temperature for 30 minutes and read using a TRF-capable plate reader at 665 and 615 nm (Victor 5, Perkin ElmerWallac). If not specified, the reagents were purchased from Sigma Chemical Co.

Chain of recombinant GST-tagged MDM2 / p53-peptide interaction (Q00987 whole entry): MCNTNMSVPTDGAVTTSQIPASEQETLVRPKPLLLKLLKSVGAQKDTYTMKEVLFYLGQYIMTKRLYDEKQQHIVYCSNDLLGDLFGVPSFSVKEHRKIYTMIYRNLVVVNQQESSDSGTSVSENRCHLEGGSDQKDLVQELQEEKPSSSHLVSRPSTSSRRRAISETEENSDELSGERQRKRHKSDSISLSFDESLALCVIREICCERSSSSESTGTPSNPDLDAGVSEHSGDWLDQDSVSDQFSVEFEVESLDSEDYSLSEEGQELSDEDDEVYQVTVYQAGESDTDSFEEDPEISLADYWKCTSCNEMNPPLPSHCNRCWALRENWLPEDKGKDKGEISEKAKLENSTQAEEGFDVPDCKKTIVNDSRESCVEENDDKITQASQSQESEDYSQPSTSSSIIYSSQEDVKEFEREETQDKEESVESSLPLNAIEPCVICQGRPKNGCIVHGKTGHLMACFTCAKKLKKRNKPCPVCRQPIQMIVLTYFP

On to `Cc1ccc(F)cc1[C@@H]1NC(=O)C[C@H](c2cc(Cl)ccc2OC(C)(C)C(=O)NC2CCN(C)CC2)[C@@]12C(=O)Nc1cc(Cl)ccc12` (racemic) [Example 1g, Racemic (2′S,3S,4′R)-6-chloro-4′-{5-chloro-2-[1-methyl-1-(1-methyl-piperidin-4-ylcarbamoyl)-ethoxy]-phenyl}-2′-(5-fluoro-2-methyl-phenyl)spiro[3H-indole-3,3′-piperidine]-2,6′(1H)-dione], for which the IC50 is 0.278 µM.
Regarding `Cc1ccc(F)cc1[C@@H]1NC(=O)C[C@H](c2cc(Cl)ccc2OC(C)(C)C(=O)NCCN2CCCCC2)[C@@]12C(=O)Nc1cc(Cl)ccc12` (racemic) [Example 8, Racemic (2′S,3S,4′R)-6-chloro-4′-{5-chloro-2-[1-methyl-1-(2-piperidin-1-yl-ethylcarbamoyl)-ethoxy]-phenyl}-2′-(5-fluoro-2-methyl-phenyl)-spiro[3H-indole-3,3′-piperidine]-2,6′(1H)-dione], the half-maximal inhibitory concentration (IC50) was found to be 0.327 µM.
As to `Cc1ccc(F)cc1[C@@H]1NC(=O)C[C@H](c2cc(Cl)ccc2OC2(C(=O)NS(=O)(=O)c3ccc(F)cc3)CCC2)[C@@]12C(=O)Nc1cc(Cl)ccc12` (racemic) [Example 11, Racemic (2′S,3S,4′R)-6-chloro-4′-{5-chloro-2-[1-(4-fluoro-benzenesulfonylaminocarbonyl)-cyclobutoxy]-phenyl}-2′-(5-fluoro-2-methyl-phenyl)-spiro[3H-indole-3,3′-piperidine]-2,6′(1H)-dione], the IC50 stood at 0.065 µM.
The same measure for `CN(C)C(=O)C(C)(C)Oc1ccc(Cl)cc1[C@H]1CC(=O)N[C@@H](c2cc(Cl)ccc2F)[C@]12C(=O)Nc1cc(Cl)ccc12` (racemic) [Example 34d, (2′R,3S,4′R)-6-chloro-4′-[5-chloro-2-(1-dimethylcarbamoyl-1-methyl-ethoxy)-phenyl]-2′-(2-fluoro-5chloro-phenyl)spiro[3H-indole-3,3′-piperidine]-2,6′(1H)-dione]: 0.155 µM; for `Cc1ccc(F)cc1[C@@H]1NC(=O)C[C@H](c2cc(Cl)ccc2OC(C)(C)C(=O)N2CCC(F)(F)CC2)[C@@]12C(=O)Nc1cc(Cl)ccc12` [Example 29b, (2′S,3S,4′R)-6-chloro-4′-{5-chloro-2-[2-(4,4-difluoro-piperidin-1-yl)-1,1-dimethyl-2-oxo-ethoxy]-phenyl}-2′-(5-fluoro-2-methyl-phenyl)spiro[3H-indole-3,3′-piperidine]-2,6′(1H)-dione]: 0.054 µM.

The values are drawn from patent US7776875B2, “Spiroindolinone derivatives” (Hoffman-La Roche Inc., priority 2007, dated 2010).
